Data on ten molecules can be found in ChEMBL document CHEMBL1201862, “PubChem BioAssay data set” (2004).

Broadly, the GI50 is the concentration at which growth is held to half of that of the control.

SMILES strings stand for the structures.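 In this assay, cells in 96-well plates receive the compound at five concentrations for 48 hours. Endpoints are linearly interpolated between the surrounding concentrations. GI50 is the concentration that inhibits growth by half.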 Active and inactive are the calls of the source. No stated cut-off is given here; in the data, active = GI50 up to about 1.1 µM and inactive = higher.

Common to all, as to assay: DTP human tumour cell line panel, 48 h
For assay [1], the system named is NCI-H226.
The subject of assay [2] is NCI-H460.
Assay [3] relates to A498.
The test system of assay [4] is DU-145.
Assay [5] has as its system OVCAR-8.
Assay [6] deals with NCI-H23.
Assay [7] relates to RPMI-8226.
Assay [8] has as its system HOP-62.
Assay [9] relates to ACHN.
Assay [10] deals with OVCAR-5.
For assay [11], the system named is HOP-92.
Assay [12] has as its system UACC-257.
The test system of assay [13] is RXF 393.
The subject of assay [14] is CCRF-CEM.
Assay [15] has as its system SN12C.
Assay [16] concerns A549.
Assay [17] concerns OVCAR-4.
The subject of assay [18] is 786-0.
Assay [19] deals with TK-10.
Assay [20] has as its system OVCAR-3.

Regarding `COc1ccc(/C=N\NC(=O)Nc2cccc3ccccc23)cc1`, the GI50 is 28.2 µM (inactive) in assay [1]; 10 µM (inactive) in assay [2]; 18.2 µM (inactive) in [3]; 38.5 µM (inactive) in [4]; > 10 µM (inactive) in assay [5]; 34.6 µM (inactive) in assay [6]. The GI50 in assay [7] is > 100 µM (inactive); in assay [8], 11 µM (inactive); in [9], 14.5 µM (inactive); in assay [10] it was > 100 µM (inactive); in assay [11] it was 21.4 µM (inactive); in assay [12] it was 34.9 µM (inactive). Also, the GI50 in assay [13] was > 10 µM (inactive); in assay [14] it was > 100 µM (inactive); in [15] it was 49.3 µM (inactive); in assay [16], 45.4 µM (inactive); in [17], 15.6 µM (inactive); in assay [18] it was 11.4 µM (inactive). Moreover, the GI50 in [19] is 20.7 µM (inactive).

Take `C/C(=N\NC(=S)N1CCN(c2ccccn2)CC1)c1nccs1`: the GI50 in assay [1] was 0.955 µM (active); in [2], 0.104 µM (active); in [3], 1.88 µM (inactive); in [4] it was 0.29 µM (active); in assay [5] it was 0.258 µM (active); in assay [6] it was 0.438 µM (active). The GI50 in assay [7] is 0.01 µM (active); in assay [8], 1.19 µM (inactive); in [9], 0.355 µM (active); in [10], 0.867 µM (active); in assay [11] it was 2.26 µM (inactive); in assay [12], 0.214 µM (active). Also, the GI50 was 3.72 µM (inactive) in assay [13]; 0.01 µM (active) in assay [14]; 1.2 µM (inactive) in assay [15]; 0.908 µM (active) in [16]; 1.03 µM (active) in assay [17]; 0.305 µM (active) in assay [18]. The GI50 in [19] was 1.91 µM (inactive).

Regarding `CC(C)(C)C(=O)Oc1ccc(/C=C/C(=O)c2ccc(OC(=O)C(C)(C)C)cc2)cc1`, the GI50 in assay [1] was > 100 µM (inactive); in [2], > 100 µM (inactive); in assay [3] it was 81.5 µM (inactive); in [4] it was 41 µM (inactive); in [5] it was 40.4 µM (inactive); in [6] it was 35.7 µM (inactive). For the same molecule, the GI50 in assay [8] is 82.2 µM (inactive); in [9], > 100 µM (inactive); in [10], > 100 µM (inactive); in assay [11], > 100 µM (inactive); in [12] it was 60.5 µM (inactive); in [13], 38.8 µM (inactive). Moreover, the GI50 in assay [14] was 6.53 µM (inactive); in assay [15], 42.8 µM (inactive); in [16], 67.6 µM (inactive); in assay [17] it was 56.2 µM (inactive); in assay [20], 27.5 µM (inactive); in assay [18], 36.7 µM (inactive). Further, the GI50 in assay [19] is > 100 µM (inactive).

As to `CC(SC(=S)N1CCCCC1)C(=O)Nc1nnc(-c2ccc(Cl)cc2)o1` (configuration not stated), the GI50 in [1] was 38.5 µM (inactive); in [2] it was 27.2 µM (inactive); in assay [3], 22.9 µM (inactive); in [4] it was 32.1 µM (inactive); in [5] it was 38.5 µM (inactive); in assay [6] it was 42.1 µM (inactive). Further, the GI50 in [7] is 20.2 µM (inactive); in assay [8], 11.8 µM (inactive); in [9], 30.5 µM (inactive); in assay [10], 51.8 µM (inactive); in [11], 45.8 µM (inactive); in assay [12] it was 37.5 µM (inactive). The GI50 was 31.6 µM (inactive) in assay [13]; 17.5 µM (inactive) in [15]; 30.3 µM (inactive) in assay [16]; 27.4 µM (inactive) in [17]; 11 µM (inactive) in assay [20]; 16.9 µM (inactive) in [18]. For the same molecule, the GI50 in [19] is 50.6 µM (inactive).

As to `CCOP(=O)(OCC)C(C)(CC)NC` (configuration not stated), the GI50 in assay [1], in assay [2], in assay [3], in [4], in [5] and in [6] was > 100 µM (inactive) each time. The GI50 in assay [8], in assay [9], in assay [10], in assay [11], in [12] and in [13] was > 100 µM (inactive) each time. Moreover, the GI50 in assay [14] was 0.935 µM (active); in assay [15], > 100 µM (inactive); in [16], > 100 µM (inactive); in assay [17], > 100 µM (inactive); in assay [20], > 100 µM (inactive); in assay [18], > 100 µM (inactive). For the same molecule, in assay [19], the GI50 is > 100 µM (inactive).

As to `Clc1ccc(-c2nnc3sc4nc5ccccc5c-4nn23)c(Cl)c1`, the GI50 in assay [1] is 64.3 µM (inactive); in assay [2] it was 41.8 µM (inactive); in [3] it was 36.4 µM (inactive); in assay [4], 72.1 µM (inactive); in assay [5], 50 µM (inactive); in [6], 29 µM (inactive). Further, the GI50 in assay [8] is 67 µM (inactive); in assay [9], 82.8 µM (inactive); in [10], 50.6 µM (inactive); in [11], 19.1 µM (inactive); in assay [12], 38.5 µM (inactive); in [13], 78.9 µM (inactive). Further, the GI50 in assay [14] was 36.5 µM (inactive); in assay [15], 50.6 µM (inactive); in assay [16], 41.7 µM (inactive); in [17] it was 42 µM (inactive); in assay [20], 29 µM (inactive); in assay [18] it was 52.6 µM (inactive). For the same molecule, the GI50 in [19] is 55.2 µM (inactive).

As to `CCOC(=O)c1nc2ccc(C(F)(F)F)cc2nc1Nc1cc(OC)c(OC)c(OC)c1`, the GI50 in [2], in [3], in [4], in assay [5], in [6] and in [7] was > 100 µM (inactive) throughout. Also, the GI50 in assay [8], in [9], in assay [10], in [11], in assay [12] and in [13] was > 100 µM (inactive) each time. Moreover, the GI50 in [14], in assay [15], in assay [16], in assay [20], in assay [18] and in [19] was > 100 µM (inactive) in each case.

For the molecule `Cc1nc2ccc(F)cc2c2c1CCS2`, the GI50 in [2] is 48.2 µM (inactive); in assay [3] it was > 100 µM (inactive); in assay [4], > 100 µM (inactive); in [5], 69.3 µM (inactive); in [6], > 100 µM (inactive); in assay [7], 38.8 µM (inactive). Besides, the GI50 is 57.4 µM (inactive) in [8]; 73.6 µM (inactive) in assay [9]; 94.6 µM (inactive) in assay [11]; 71.9 µM (inactive) in assay [12]; 18.5 µM (inactive) in assay [13]; 41 µM (inactive) in assay [14]. For the same molecule, the GI50 in assay [16] was > 100 µM (inactive); in [17], > 100 µM (inactive); in [20] it was 45.9 µM (inactive); in [18] it was 78.7 µM (inactive); in assay [19] it was 54.5 µM (inactive).

With `CCCCCc1cc2cc3c(c(O)c2c(=O)[nH]1)C1(CCC3)C(=O)c2c(O)c3c(c(O)c2C1=O)C(=O)C(OC)=CC3=O` (configuration not stated), the GI50 in assay [1] was 1.87 µM (inactive); in assay [2], 0.757 µM (active); in [3], 2.18 µM (inactive); in assay [4] it was 0.822 µM (active); in assay [5], 0.714 µM (active); in assay [6], 0.828 µM (active). In addition, the GI50 in assay [7] was 0.386 µM (active); in assay [8], 3.33 µM (inactive); in assay [9] it was 0.552 µM (active); in assay [10], 2.02 µM (inactive); in assay [11], 0.433 µM (active); in [12] it was 0.783 µM (active). Further, the GI50 is 0.673 µM (active) in [13]; 0.586 µM (active) in assay [14]; 1.01 µM (active) in [15]; 1 µM (active) in [16]; 1.44 µM (inactive) in assay [17]; 0.499 µM (active) in assay [20]. In addition, the GI50 in assay [18] is 0.746 µM (active).

Consider `O=C(O)c1ccccc1/N=N/c1c(O)c(S(=O)(=O)O)cc2cc(S(=O)(=O)O)ccc12`, for which the GI50 in [1], in assay [2], in assay [3], in assay [4], in assay [5] and in [6] was > 100 µM (inactive) in each case. For the same molecule, the GI50 in assay [8], in assay [9], in assay [10], in [11], in assay [12] and in [13] was > 100 µM (inactive) throughout. Moreover, the GI50 in assay [14], in assay [15], in [16], in assay [17], in [20] and in [18] was > 100 µM (inactive) in each case. In addition, the GI50 in assay [19] is > 100 µM (inactive).
